Laboratory results taken from patent publication US9169213B2, “Method of weight management” (Arena Pharmaceuticals, Inc., priority 2012, dated 2015).

Assays:
Format in all cases: in vivo, human
[1] = Pooled BLOOM and BLOSSOM Phase 3 studies: Week 52 outcomes by Week 12/Week 24 responder status, patients without T2DM
Method: APD356-009 (“BLOOM”) was a 104-week, placebo controlled study that assessed the safety and efficacy of lorcaserin 10 mg BID in overweight and obese patients, with concurrent behavior modification. The primary efficacy objective during Year 1 was to evaluate weight loss; the primary objective during Year 2 was to assess the ability of lorcaserin to maintain body weight loss that was achieved during Year 1. At study start, each patient received randomized, double blind treatment assignments for Year 1 and for Year 2 (all patients were given a new randomization number for Year 2 to assure that patients and study personnel remained blinded to treatment assignments). All patients assigned to placebo during Year 1 (50% of randomized population) remained on placebo in Year 2. Patients assigned to lorcaserin during Year 1 were randomly assigned to stay on lorcaserin during Year 2 (⅔ of Year 1 lorcaserin patients) or to switch to placebo (⅓ of Year 1 lorcaserin patients).
APD356-011 (“BLOSSOM”) was a 52-week, placebo controlled study that evaluated the effect of two lorcaserin doses (10 mg BID and 10 mg QD) on categorical and total weight loss with concurrent behavior modification. Patients were randomized in a ratio of 2:1:2 to lorcaserin 10 mg BID, 10 mg QD, or placebo.
(§1) An analysis of early weight loss was performed, at each visit after baseline through Week 24, as a predictor of ultimate weight loss success, as defined by achieving at least about 5% weight loss at 52 weeks, or at least about 10% weight loss at 52 weeks.

[2] = BLOOM-DM (APD356-010) Phase 3 study: Week 52 outcomes by Week 12/Week 24 responder status, patients with type 2 diabetes mellitus
Method: APD356-010 (BLOOM-DM) was a 52-week, placebo controlled study that evaluated the effect of two lorcaserin doses (10 mg BID and 10 mg QD) on categorical and total weight loss with concurrent behavior modification in 604 patients with type 2 diabetes mellitus managed with oral hypoglycemic agents. Randomization to the 10 mg once daily group was halted by protocol amendment in order to accelerate enrollment, resulting in final group sizes of 253 (placebo), 95 (lorcaserin QD) and 256 (lorcaserin BID).
as §1
Table 3 and Table 4 provide the sensitivity, specificity, positive predicted value (PPV) and negative predictive value (NPV) at Weeks 12 and 24 for at least about 5% and at least about 10% weight loss at Week 52 in different studies. The rounded percent weight loss at Week 12 for at least 5% and at least about 10% weight loss at Week 52 are about 5% and about 6%, respectively. Using the about 6% weight loss at Week 12 as a criterion enhances the PPV for both about 5% and about 10% categorical weight loss at Week 52, but at the expense of excluding about 10% and about 4% more of the about 5% categorical responders at Week 52 in patients without and with diabetes, respectively, based upon NPV. The rounded optimal thresholds at Week 24 for at least about 5% and at least about 10% weight loss at Week 52 are about 6% and about 9%, respectively. Using the 9% weight loss criterion at Week 24 enhances the PPV for both about 5% and about 10% categorical weight loss at Week 52, but at the expense of excluding about 19% and about 9% more of the about 5% categorical responders at Week 52 in patients without and with diabetes, respectively, based upon NPV. As described below, if at least about a 5% weight loss criterion is applied, patients achieving this milestone will achieve an average of about 10.8% weight loss in patients without diabetes and about 9.1% weight loss in patients with diabetes at Week 52.
(§2) Tables 6 and 7, below, present weight loss, vital sign, and glycemic changes at Week 52 in pooled patients without diabetes, patients with T2DM, and pooled patients with impaired fasting glucose (IFG; ≧100 mg/dL) who were Week 12 responders.

[3] = Pooled patients with impaired fasting glucose (IFG) who were Week 12 responders: Week 52 outcomes
Method: as §2

[4] = Week 12 Responder (≧5% weight loss), MITT with LOCF, 10 mg BID
[5] = Week 12 responders without diabetes
[6] = Week 12 responders, patients without T2DM, 10 mg BID
[7] = all patients without T2DM, MITT-LOCF
[8] = percent change from baseline at Week 52, Week 12 responders, patients without T2DM, 10 mg BID
[9] = Week 12 responders, patients with T2DM, 10 mg BID
[10] = all patients with T2DM, MITT-LOCF
[11] = percent change from baseline at Week 52, Week 12 responders, patients with T2DM, 10 mg BID
[12] = Week 12 responders with impaired fasting glucose (IFG) at baseline
[13] = Week 12 responders, patients with IFG, 10 mg BID
[14] = percent change from baseline at Week 52, Week 12 responders, patients with IFG, 10 mg BID

Substance: (R)-8-chloro-1-methyl-2,3,4,5-tetrahydro-1H-3-benzazepine hydrochloride salt hemihydrate [drug]
- Week 52 Weight 5% Responder [1, 4]: 86%
- Week 52 Weight 10% Responder [1, 4]: 50%
- Week 52 reduction in diastolic blood pressure [1, 5]: 2.5 mmHg
- Week 52 reduction in heart rate [1, 5]: 2.5 BPM
- Week 52 reduction in systolic blood pressure [1, 5]: 3.4 mmHg
- A1C W52 Change [1, 6]: −0.18%
- DBP W52 Change [1, 6]: −2.5 mmHg
- FPG W52 Change [1, 6]: -2.2 mg/dL
- Heart Rate W52 Change [1, 6]: −2.5 bpm
- SBP W52 Change [1, 6]: −3.4 mmHg
- Weight Loss ≧5% (%) at W52 [1, 6]: 85.5%
- Weight Loss ≧10% (%) at W52 [1, 6]: 49.8%
- proportion achieving ≧5% weight loss at Week 52 [1, 7]: 47%
- weight loss at Week 52 [1, 7]: 5.8 kg
- Week 12 Responder (at least 5% weight loss at Week 12), percentage of patients ([1]; of patients with observed Week 12 data, without diabetes, 10 mg BID): 49.3%
- HDL-C (mg/dL)* W52 Change [1, 8]: 4.6%
- LDL-C (mg/dL)* W52 Change [1, 8]: 1.1%
- Total Cholesterol (mg/dL)* W52 Change [1, 8]: −1.7%
- Triglycerides (mg/dL)* W52 Change [1, 8]: −14.5%
- Week 52 Weight 5% Responder [2, 4]: 71%
- Week 52 Weight 10% Responder [2, 4]: 36%
- Week 52 reduction in diastolic blood pressure ([2]; Week 12 responders with T2DM): 1.9 mmHg
- Week 52 reduction in heart rate ([2]; Week 12 responders with T2DM): 3.2 BPM
- Week 52 reduction in systolic blood pressure ([2]; Week 12 responders with T2DM): 2.6 mmHg
- A1C W52 Change [2, 9]: −1.2%
- DBP W52 Change [2, 9]: −1.9 mmHg
- FPG W52 Change [2, 9]: -29.3 mg/dL
- Heart Rate W52 Change [2, 9]: −3.2 bpm
- SBP W52 Change [2, 9]: −2.6 mmHg
- Weight Loss ≧5% (%) at W52 [2, 9]: 70.5%
- Weight Loss ≧10% (%) at W52 [2, 9]: 35.9%
- Weight W52 Change [2, 9]: -9.3 kg
- proportion achieving ≧5% weight loss at Week 52 [2, 10]: 38%
- weight loss at Week 52 [2, 10]: 4.7 kg
- Week 52 reduction in A1C ([2]; diabetic Week 12 responders): 1.2%
- Week 52 reduction in FPG ([2]; diabetic Week 12 responders): 29.3 mg/dL
- Week 12 Responder (at least 5% weight loss at Week 12), percentage of patients ([2]; of patients with observed Week 12 data, type 2 diabetes, 10 mg BID): 35.9%
- HDL-C (mg/dL)* W52 Change [2, 11]: 8.8%
- LDL-C (mg/dL)* W52 Change [2, 11]: 1.4%
- Total Cholesterol (mg/dL)* W52 Change [2, 11]: −0.7%
- Triglycerides (mg/dL)* W52 Change [2, 11]: −17.8%
- Week 52 reduction in A1C [3, 12]: 0.4%
- Week 52 reduction in FPG [3, 12]: 7.8 mg/dL
- A1C W52 Change [3, 13]: −0.11%
- DBP W52 Change [3, 13]: −1.5 mmHg
- FPG W52 Change [3, 13]: -7.8 mg/dL
- Heart Rate W52 Change [3, 13]: −3.7 bpm
- SBP W52 Change [3, 13]: −1.7 mmHg
- Weight Loss ≧5% (%) at W52 [3, 13]: 88.8%
- Weight Loss ≧10% (%) at W52 [3, 13]: 52.4%
- Weight W52 Change [3, 13]: -11.2 kg
- HDL-C (mg/dL)* W52 Change [3, 14]: 2.1%
- LDL-C (mg/dL)* W52 Change [3, 14]: 2.5%
- Total Cholesterol (mg/dL)* W52 Change [3, 14]: −2.3%
- Triglycerides (mg/dL)* W52 Change [3, 14]: −15.5%
